Laboratory results taken from patent publication US10086034B2, “Compositions and methods for inducing urinary voiding and defecation” (Dignify Therapeutics, LLC, priority 2013, dated 2018).
Entries after “also recorded” stand apart in the source; their conditions may differ. Where no end group is shown, it is not given here. [ ]: non-standard residue; d: D form. βAla = NCCC(=O)O

How the values were obtained:
[1] = test system: Beagle dogs; test: Adverse events after a high i.v. dose of NK2R agonist in beagle dogs; type: in vivo; conditions: 150 ug/kg intravenous, stated in Example 10 (present tense methods)
Method: General: Beagle dogs (6-11 kg, purpose-bred and experimentally naïve) are housed at an AAALAC approved facility in cages (1/cage) with access to water and food. A butterfly intravenous catheter is inserted into a vein (e.g. radial or saphenous). All animal activities are performed in compliance with USDA guidelines. Animals are monitored for 5 days prior to dosing to ensure adequate health.
Treatments and Dosing: Animals are administered a dose of an NK2R agonist that produces observed adverse events. […] Adverse events are commonly quantified by measuring the number of events and the duration of each event occurring during “1 minute time bins” after NK2R agonist administration to create a time histogram of events. When voiding has stopped, a NK2R antagonist is administered intravenously. Efficacy of the NK2R antagonist is obtained by measuring the reduction in the number and duration of adverse events.

[2] = test system: bladder of anesthetized acutely spinalized female rats; test: Bladder contractility: isovolumetric bladder pressure recording in anesthetized acutely spinalized rats; type: in vivo, Sprague Dawley rats; conditions: for effect of antagonist pre-administration on DTI-100 induced increase in bladder pressure: antagonist 1 mg/kg, DTI-100 10 μg/kg i.v., paired t-test, N=4; for bladder pressure (peak pressure response): increasing i.v. doses, acutely spinalized anesthetized female rats
Method: (§1) General: In vivo studies were performed in anesthetized, acutely spinalized (T9-10 level) rats (N=37) or spinally intact (N=3) rats. Adult female Sprague Dawley rats (Charles River, N.C.; 250-300 g) were housed at an AAALAC approved facility in cages (3/cage) with free access to water and food in a colony room that was maintained on a 12 hr/12 hr light/dark cycle 1-2 weeks before the experiment. Rats were anesthetized with urethane (1.2-1.4 g/kg subcutaneous injection). Surgical procedures were then performed with the addition of isoflurane anesthesia (0.05-1.5% in O2) as the full anesthetic effect of urethane takes about 1-2 hrs.
A catheter filled with heparinized saline (50 unit/ml) was inserted into the carotid artery and connected to a pressure transducer for measurement of blood pressure and heart rate. A catheter was inserted into the jugular vein for intravenous (i.v.) administration of drugs. In order to transect the spinal cord, the skin and muscle on the dorsal side at the level of the lower thoracic vertebrae were incised, and the spinal cord was carefully exposed by a laminectomy and transected at the T8-T10 spinal level. Gelfoam was placed at the incision site and the muscle and skin overlying the vertebrae were closed with wound clips. The spinal cord was cut at least 60 min before starting the experimental protocol.
Bladder Contractility: For isovolumetric recordings of bladder pressure a saline-filled polyethylene tubing with a flared tip (PE 50®) catheter was inserted into the bladder and secured in place at the dome. This catheter was used to slowly infuse saline (0.2-0.3 ml/min by an infusion pump (PHD2000 infusion, Harvard Apparatus, Holliston, Mass.) to determine the bladder capacity. The bladder capacity was determined as the volume necessary to fill the bladder to the leak point pressure (i.e. volume required to produce voiding). The bladder was then emptied, the external urethra occluded and the bladder filled to 70% capacity. This method produced a stable baseline pressure in which drug induced changes in bladder contractility could be measured. Peak pressure responses, time to peak, and time to return to near baseline values (within 5 mmHg of baseline; i.e. duration of action) after vehicle and drug administration were measured.
Dosing: Responses to saline i.v. were given to ensure stable baseline pressures and lack of response to saline (vehicle control for DTI-100) at the start of each protocol and periodical throughout the experiment. DTI-100 was given in dose range of 0.01-100 μg/kg. The NK1R antagonist, Spantide I (solubilized in saline) and NK2R antagonist GR159897 (solubilized at 50 mM in DMSO and then diluted in saline) were given at a 1 mg/kg dose. Neurokinin A (NKA) and (betaAla8)NKA(4-10) were given at doses 1-100 μg/kg. Additional routes of drug administration explored included, intramuscular, subcutaneous, and sublingual. [Lys5,MeLeu9,Nle10]-NKA(4-10) (SEQ ID NO: 1) or “DTI-100”, Spantide I, GR159897, Neurokinin A, and (BetaAla8)NKA(4-10) were obtained from TOCRIS R&D SYSTEMS, Inc. (Minneapolis, Minn.).
Data analysis: Data were examined qualitatively and quantitatively. The mean, standard deviation and standard error of the mean were calculated using MICROSOFT EXCEL. One way ANOVA tests were performed with PRISM 5 for WINDOWS (Graphpad Software, Inc., La Jolla, Calif.) and unpaired and paired t-tests were performed in EXCEL. P<0.05 was considered as statistically significant.

[3] = test system: colorectum of anesthetized acutely spinalized female rats; test: Colorectal contractility: balloon catheter colorectal pressure in anesthetized rats; type: in vivo, Sprague Dawley rats; conditions: antagonist 1 mg/kg i.v.; DTI-100 10 μg/kg given 5 min later
Method: as §1, with “hrs. […]” for “hrs.”
Colorectal Contractility: Colorectal pressures were measured via a latex balloon catheter (length 3-5 cm) inserted (˜4 cm) into the distal rectal/colon region. […] This allowed drug induced changes in colorectal pressure to be monitored. Parameters measured include peak colorectal pressure response, duration of time above baseline activity (in the 1st 5 min after drug administration), area under the curve (measured during the 1st 5 min after drug administration) and the number of contractile events after vehicle and drug administration. […]
Data analysis: Data were examined qualitatively and quantitatively. The mean, standard deviation and standard error of the mean were calculated using MICROSOFT EXCEL. […]

CCCC[C@H](NC(=O)[C@H](CC(C)C)N(C)C(=O)CNC(=O)[C@@H](NC(=O)[C@H](Cc1ccccc1)NC(=O)[C@H](CCCCN)NC(=O)[C@@H](N)CC(=O)O)C(C)C)C(N)=O [DTI-100, [Lys5,MeLeu9,Nle10]-NKA(4-10)]
duration of adverse events [1]: approximately 15 minutes | adverse events observed ([1]; within minutes after voiding and defecation): retching, emesis, panting, and vocalization

COC1(C[S@@+]([O-])c2ccccc2)CCN(CCc2c[nH]c3ccc(F)cc23)CC1 [GR159897]
effect of antagonist pre-administration on DTI-100 induced increase in bladder pressure [2]: significantly blocked the bladder pressure increase to DTI-100 | effect of antagonist pre-administration on DTI-100 induced increase in colorectal activity [3]: significantly blocked the bladder pressure increase produced by DTI-100

Asp-Ser-Phe-Val-β-Ala-Leu-Met-NH2 (DSFV[βAla]LM-NH2) [(betaAla8)NKA(4-10), peptide agonist for NK2R]
bladder pressure (peak pressure response) [2]: produce increases in bladder pressure

His-Lys-Thr-Asp-Ser-Phe-Val-Gly-Leu-Met-NH2 (HKTDSFVGLM-NH2) [NKA, neuropeptide neurokininA, peptide agonist for NK2R]
time to peak bladder pressure response ([2]; i.v., all doses studied): ≤ 60 s | bladder pressure (peak pressure response) [2]: produce increases in bladder pressure | bladder pressure ([2]; intramuscular, subcutaneous and sublingual injections, DTI-100 10-100 μg/kg, NKA 5-100 μg/kg): showed an increase in bladder pressure

Spantide I
effect of antagonist pre-administration on DTI-100 induced increase in bladder pressure [2]: did not reduce the effect of DTI-100 on bladder pressure; also recorded: the same before (Before) and after (After) administration | effect of antagonist pre-administration on DTI-100 induced increase in colorectal activity [3]: did not reduce the effect of DTI-100 on colorectal activity
